Where a name gives a salt, the structure may show the parent alone. Read-outs that look alike come from different tables or passages of the source.
Tests used:
DENV2 replicon = experiment: microbe, parasite or virus in culture; assay type: cell-based, Dengue Virus 2 (DENV2); settings: for inhibition at 50 µM / EC50: Dengue virus; for inhibition at 50 µM: DENV2, BHK-21, read-out: % Replicon Inhibition (Means ± SEM) DENV2; for EC50: DENV2, BHK-21, read-out: DENV replicon EC50
WNV replicon = experiment: microbe, parasite or virus in culture; assay type: cell-based, West Nile virus (WNV); settings: for inhibition at 50 µM / EC50: West Nile virus, Vero; for inhibition at 50 µM: read-out: % Replicon Inhibition (Means ± SEM) WNV; for EC50: read-out: WNV replicon EC50
DENV2 = experiment: Inhibition of DENV2 infectivity in BHK-21 cells, plaque assay of supernatants; assay type: cell-based, Dengue Virus 2 (DENV2); settings: Dengue virus, DENV2, BHK-21, 72 h, read-out: EC90 for inhibition of DENV2 infectivity (plaque assay)
Protocol: BHK-21 cells were seeded into 12-well plates (10^5 cells/well) and incubated overnight at 37° C. Cells were infected with DENV2 at a multiplicity of infection (MOI) of 0.01 or 1 as indicated. After infection, cells were washed with PBS and incubated with 1.5 mL of MEM supplemented with 2% FBS, 100 I.U./mL penicillin/100 μg/mL streptomycin (referred to as maintenance medium). AQ, at indicated concentrations, was added and cells were incubated at 37° C. for various time points as indicated. DMSO (1%), as a no-compound control (100% infection), and mock-infected control using medium alone (0% infection) were included. Supernatants were collected from the time point experiments and the virus titers determined by plaque assay.
BHK-21 cells were seeded at ˜10^5 cells/well (12-well plate) or ˜5×10^4 cells/well (24-well plate) and then incubated at 37° C. until reaching 90% confluence. Cells were infected with the supernatants collected from experiments of AQ treatments. Cells were washed with PBS, and incubated with 1.5 mL of overlay medium (maintenance medium containing 1% methylcellulose). The plates were incubated for 3-4 days at 37° C. under 5% CO2. After plaques became visually apparent by microscopy, cells were fixed and stained with 11.1% formaldehyde, 4.75% isopropanol, and 1% crystal violet for 30 minutes. The number of plaque forming units (PFU) per mL was determined.
BHK-21 cells were seeded as described above. AQ, at indicated concentrations in 1% DMSO, was added to DENV2 (MOI of 0.01 or 1)-infected cells during adsorption and/or post-infection. Supernatants were collected at indicated time points post-infection for plaque assays.

in vitro [1] = settings: hamster
in vitro [2] = settings: African green monkey
Vero cells = settings: African green monkey
BHK-21 cells = settings: hamster

Q: Which results are given for C/C=C1\CN2CC[C@H]1C[C@H]2[C@H](O)c1ccnc2ccc(O)cc12 [apoquinine]?
A: % Replicon Inhibition (Means ± SEM) DENV2 (DENV2 replicon): — (key: —: “-” refers to no inhibition); % Replicon Inhibition (Means ± SEM) WNV (WNV replicon; 50 μM in 1% DMSO, Vero/WNV replicon cells): 33.7 ± 2.9%

Q: With CCN(CC)CCCC(C)Nc1ccnc2cc(Cl)ccc12 (stereo not drawn) [chloroquine (CQ), chloroquine] as the compound, how does the “inhibition of DENV2 replicon replication (in words)” value (DENV2 replicon) read?
A: did not inhibit DENV2 replicon replication

Q: What about the inhibition at 50 µM (DENV2 replicon) of the same compound?
A: 54.8 ± 4.5%

Q: And the inhibition at 50 µM (WNV replicon)?
A: 18.5 ± 2.8%

Q: What about the EC90 (DENV2) of the same compound?
A: 5.04 ± 0.72 µM

Q: For CC(CCc1ccc(N(CCCl)CCCl)cc1)Nc1ccnc2cc(Cl)ccc12 (stereo not drawn) [chloroquine ethyl phenyl mustard], which CC50 (in vitro [1]) is on record?
A: 74.1 ± 21.5 µM

Q: What about the “% Replicon Inhibition (Means ± SEM) DENV2” value (DENV2 replicon) of the same compound?
A: 99.8 ± 0.03%

Q: What about the inhibition at 50 µM (DENV2 replicon) of the same compound?
A: > 99%

Q: What about the EC50 (DENV2 replicon) of the same compound?
A: 3.6 ± 0.83 µM

Q: And the “% Replicon Inhibition (Means ± SEM) WNV” value (WNV replicon)?
A: 99.5 ± 0.05%

Q: What about the inhibition at 50 µM (WNV replicon) of the same compound?
A: > 99%

Q: And the EC50 (WNV replicon)?
A: 1.55 ± 0.4 µM

Q: What about the CC50 (in vitro [2]) of the same compound?
A: 5.02 ± 1.23 µM

Q: With CC(CCCN(CCCl)CCCl)Nc1ccnc2cc(Cl)ccc12.O=C(O)c1cc2ccccc2c(Cc2c(O)c(C(=O)O)cc3ccccc23)c1O [chloroquine mustard pamoate] as the compound, how does the “% Replicon Inhibition (Means ± SEM) DENV2” value (DENV2 replicon) read?
A: 47.5 ± 4.9%

Q: What about the “% Replicon Inhibition (Means ± SEM) WNV” value (WNV replicon) of the same compound?
A: 10.35 ± 4.1%

Q: Which CC50 (Vero cells) does the source give for CC(CCCN(CCCl)CCCl)Nc1ccnc2cc(Cl)ccc12 (stereo not drawn) [chloroquine mustard] here?
A: 3.64 ± 0.93 µM

Q: And the CC50 (BHK-21 cells)?
A: 30.5 ± 9.77 µM

Q: What about the “% Replicon Inhibition (Means ± SEM) DENV2” value (DENV2 replicon) of the same compound?
A: 99.6 ± 0.32%

Q: What about the inhibition at 50 µM (DENV2 replicon) of the same compound?
A: > 99%

Q: And the EC50 (DENV2 replicon)?
A: 2.9 ± 0.78 µM

Q: What about the “% Replicon Inhibition (Means ± SEM) WNV” value (WNV replicon) of the same compound?
A: 99.8 ± 0.03%

Q: What about the inhibition at 50 µM (WNV replicon) of the same compound?
A: > 99%

Q: And the EC50 (WNV replicon)?
A: 2.95 ± 0.77 µM

Q: With COc1cc(NC(C)CCCN)c2ncccc2c1 (stereo not drawn) [primaquine] as the compound, how does the inhibition at 50 µM (DENV2 replicon) read?
A: < 0%

Q: And the inhibition at 50 µM (WNV replicon)?
A: < 0%

Q: With C=C[C@H]1C[N@@]2CC[C@H]1C[C@H]2[C@H](O)c1ccnc2ccc(OC)cc12 [quinine, hydrobromide hydrate] as the compound, how does the inhibition at 50 µM (DENV2 replicon) read?
A: 2.8 ± 0.25%

Q: What about the inhibition at 50 µM (WNV replicon) of the same compound?
A: 34.9 ± 6.7%

Q: For chloroquine sulfate, which “% Replicon Inhibition (Means ± SEM) DENV2” value (DENV2 replicon) is on record?
A: 28.1 ± 3.6%

Q: What about the “% Replicon Inhibition (Means ± SEM) WNV” value (WNV replicon) of the same compound?
A: — (key: —: “-” refers to no inhibition)
